Holding throughout (experiment): growth of human tumour cells (NCI), 48 h
Experiment [1] relates to MCF7 breast.
In experiment [2] the test system is U251 CNS.
Experiment [3] has as its system SNB-19 CNS.
Experiment [4] concerns 786-0 renal.
For experiment [5], the system named is A549 NSCLC.
Experiment [6] has as its system OVCAR-5 ovarian.
The test system of experiment [7] is HOP-62 NSCLC.
Experiment [8] concerns RPMI-8226 leukemia.
The test system of experiment [9] is OVCAR-8 ovarian.
Experiment [10] concerns SR leukemia.

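Tested at 5 concentrations; 48 h exposure; 96-well plates; endpoints linearly interpolated, else capped at highest concentration. At the GI50, growth is halved. TGI: concentration producing complete growth inhibition.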 Bounds are passed on as bounds.

For the compound `O=C1CCC/C=C\C[C@H]2C=CC(=O)/C2=C/C[C@H](C/C=C\CC(F)(F)F)O1`, the GI50 in experiment [1] was 0.336 µM; in experiment [2] it was 0.419 µM; in experiment [3], 0.867 µM; in [4], 0.311 µM; in experiment [5], 0.528 µM; in experiment [6] it was 0.67 µM. Further, the values for the GI50 in experiment [7], in [8] and in experiment [9] were 0.333 µM, 0.275 µM and 0.423 µM, respectively. The TGI in [1] came out at 3.16 µM; in [2] it was 1.75 µM; in [3] it was 3.71 µM; in experiment [4], 0.677 µM; in experiment [5], 2.38 µM; in experiment [6], 3.11 µM. For the same compound, the TGI came out at 0.757 µM in experiment [7], 0.858 µM in experiment [8] and 1.34 µM in experiment [9].
Turning to `S=c1[nH]c2c(Cl)c(Cl)c(Cl)c(Cl)c2[nH]1`, the TGI in [1] was 40.5 µM; in [2], more than 100 µM; in [3] it was 81.3 µM; in experiment [4] it was 63.3 µM; in experiment [5], more than 100 µM; in experiment [6] it was 65 µM. For the same compound, the TGI in experiment [7] is 80.2 µM; in experiment [8], 30.1 µM; in experiment [9], 57.4 µM.
For the compound `C[C@H](Nc1cc(Cl)nc2c1cnn2[C@@H]1O[C@H](COP(=O)(O)CP(=O)(O)O)[C@@H](O)[C@H]1O)c1ccccc1F`, the GI50 in experiment [1], in experiment [2], in experiment [3], in experiment [4], in [5] and in experiment [6] was more than 100 µM throughout. In addition, the GI50 in experiment [10], in experiment [7] and in [9] was more than 100 µM throughout. For the same compound, the TGI in experiment [1], in experiment [2], in experiment [3], in experiment [4], in experiment [5] and in experiment [6] was more than 100 µM each time. The TGI in [10], in experiment [7] and in experiment [9] was more than 100 µM each time.
Turning to `CC1CCN(C(=O)OCc2nc3nc(Cl)nc(N4CCOCC4)c3[nH]2)CC1`, the GI50 in experiment [1] was 0.65 µM; in experiment [2], 1.66 µM; in [3], 1.55 µM; in [4] it was 1.29 µM; in experiment [5], 1.94 µM; in experiment [6], 1.31 µM. In addition, the GI50 in [10] is 0.331 µM; in [7] it was 1.76 µM; in experiment [9] it was 1.9 µM. The TGI is 2.38 µM in experiment [1]; 3.43 µM in experiment [2]; 2.9 µM in experiment [3]; 2.69 µM in [4]; 4.81 µM in experiment [5]; 2.73 µM in experiment [6]. For the same compound, the results for the TGI in experiment [10], in [7] and in [9] were 3.31 µM, 5 µM and 9.02 µM, respectively.
As to `CCc1c(Cl)c(C)cc(O)c1Cl`, the TGI in experiment [1] is more than 100 µM; in experiment [2], 29 µM; in [3], more than 100 µM; in experiment [4] it was more than 100 µM; in experiment [5], more than 100 µM; in experiment [6] it was more than 100 µM. In addition, the TGI in experiment [7] is more than 100 µM; in experiment [8] it was 57.5 µM; in experiment [9], more than 100 µM.
As to `O=C(/C=C/C=C/c1ccccc1)c1ccccc1`, the TGI turned out to be 42.9 µM in experiment [1]; 27 µM in experiment [2]; 44.4 µM in experiment [3]; 27.4 µM in [4]; 42.7 µM in experiment [5]; 28.8 µM in [6]. For the same compound, the values for the TGI in [10], in [8] and in experiment [9] were 34.5 µM, 72.5 µM and 26.1 µM, respectively.
`O=C(Nc1cc(C(F)(F)F)ccc1Cl)c1cccc(NC2=C(Cl)C(=O)N(Cc3ccccc3)C2=O)c1`: the GI50 in experiment [1] is 5.76 µM; in [2] it was 11.1 µM; in [3] it was more than 100 µM; in [4], 38.5 µM; in experiment [5], 72.8 µM; in [10] it was 1.26 µM. Moreover, the GI50 is more than 100 µM in experiment [7], 2.92 µM in [8] and 47.6 µM in [9]. In addition, the TGI in experiment [1] is 85.6 µM; in experiment [2] it was more than 100 µM; in [3], more than 100 µM; in [4] it was more than 100 µM; in [5], more than 100 µM; in [10] it was 3.16 µM. Besides, the figures for the TGI in experiment [7], in experiment [8] and in [9] were more than 100 µM, 50 µM and more than 100 µM, respectively.
Consider `CC(C)=CCc1cc(O)cc2c1OC(C=C(C)C)C1=C2C(=O)C2=C(C1=O)S(=O)(=O)CCN2` (centres undefined), for which the GI50 in [1] was 2.79 µM; in experiment [2] it was 2.84 µM; in experiment [3], 2.78 µM; in experiment [4], 5.05 µM; in [5], 6.14 µM; in experiment [6] it was 4.34 µM. Besides, the GI50 in experiment [7] was 5.66 µM; in experiment [8], 4.16 µM; in [9], 3.09 µM. In addition, the TGI in [1] is 6.97 µM; in experiment [2], 5.15 µM; in experiment [3], 5.15 µM; in experiment [4] it was more than 16.7 µM; in experiment [5], more than 16.7 µM; in experiment [6], 12.5 µM. Further, the TGI is more than 16.7 µM in [7], 12.2 µM in [8] and 6.72 µM in experiment [9].
Regarding `C#Cc1nc(Nc2cc(C)[nH]n2)c2ccccc2n1`, the GI50 in experiment [1] was 0.197 µM; in experiment [2], 0.256 µM; in experiment [3] it was 2.27 µM; in [4] it was 0.349 µM; in experiment [5] it was 0.394 µM; in experiment [6], 0.332 µM. The GI50 in experiment [10] was 0.226 µM; in experiment [8], 0.0835 µM; in experiment [9] it was 0.325 µM. In addition, the TGI in experiment [1] came to 1.67 µM; in experiment [2], 0.885 µM; in experiment [3] it was 81.1 µM; in [4], 1.13 µM; in [5] it was 2.24 µM; in experiment [6] it was 0.995 µM. For the same compound, the TGI is 0.79 µM in experiment [10], 0.46 µM in [8] and more than 100 µM in experiment [9].
For `CC(C)=CCc1cc2c(cc1O)OC[C@H]1c3cc4c(cc3O[C@@H]21)OCO4`, the TGI was 58.7 µM in experiment [1]; more than 100 µM in [2]; more than 100 µM in experiment [3]; more than 100 µM in [4]; more than 100 µM in experiment [5]; more than 100 µM in [6]. For the same compound, the TGI in experiment [10], in experiment [7] and in experiment [9] was more than 100 µM each time.

For the origin of these results see PubChem BioAssay (NCI).
